The values below come from US9642870B2, “Composition for preventing or alleviating atopic dermatitis comprising immunosuppressant and transglutaminase 2 inhibitor” (Dongguk University Industry-Academic Cooperation Foundation, priority 2011, dated 2017).

In series [1] the test system is IgE. Nature of the series: Total serum IgE (ELISA). Type of series: in vivo, mice. The settings on record: administered alone, compared with the control. As to the method:
Since the major symptoms of atopic dermatitis were associated with strong Th2 immune response, IgE was produced at an excessive amount. Therefore, either glucosamine or tacrolimus was administered alone to the atopy-induced mice, or glucosamine and tacrolimus were administered in combination to measure a level of IgE in the serum. After one week had elapsed after the final administration, sera were obtained from the mice, and a total level of IgE was measured using an ELISA kit (Yamasa, Tokyo, Japan).
A general note: An ELISA detects its analyte on a solid surface through an enzyme-linked reagent.

The conditions of series [2]: in vivo.
For series [3], the system named is severe atopic dermatitis patients. Nature of the series: Clinical test: objective SCORAD index in atopic dermatitis patients. The settings on record: FIG. 17.
Experimental: During the experiments, the vital signs, that is, a blood pressure and a pulse, were measured after patients sat for 3 minutes to rest.
Thereafter, the SCORAD indexes were measured. […] The SCORAD indexes were measured before dosage and at points of time at which the dosage methods were changed. It was assumed that an area of lesions was set to 0 to 100% according to the rule of nine, the SCORAD index was calculated as the sum (0-103) of an objective SCORAD index and a subjective SCORAD index. Here, the objective SCORAD index was calculated by dividing the severity of atopic dermatitis, which was divided into 6 categories of erythema, edema/papulation, oozing/crusts, excoriations, lichenification and skin dryness, by 0 to 3, summing up the calculated values, and adding the sum of the calculated values to ⅕ of the area of the lesions, and the subjective SCORAD index was obtained by setting each of pruritus and dyssomnia during waking hours to analog scales 0 to 10 (European Task Force on Atopic Dermatitis, 1993). […] Therefore, only the objective SCORAD index was evaluated in this Example.
The changes in the SCORAD indexes of the 10 patients were plotted on one graph.
Then, average lines plotted from the results of all the patients were drawn, and compared.
Series [4] can be described thus: Minimum and maximum doses from experiments conducted at a cell level. The format is cell-based. As to conditions: no difference in inhibition level.
Series [5] has as its system IFN-g, IL-4, IL-5. Nature of the series: Immunosuppressive effects of immunosuppressants administered alone (IFN-g, IL-4, IL-5 concentrations). The settings on record: FIGS. 24 to 26. The format is cell-based. The text has this: Further, immunosuppressive effects according to the kinds of immunosuppressants were further confirmed through experiments conducted to determine a proper dosage concentration.

Each structure is given as a SMILES string.

In the case of `N[C@H]1C(O)O[C@H](CO)[C@@H](O)[C@@H]1O` (stereo partly shown) [glucosamine], the “total level of IgE in the serum” value in series [1] is given as “no clear difference”. Moreover, the “blood glucosamine concentrations, animals versus humans” value in series [2] is listed as “no significant difference”. The “change in SCORAD indexes” value in series [3] (glucosamine administered alone, November 10 to November 24) is listed as “no change”. The “therapeutic effect (SCORAD indexes), summary” value in series [3] (single versus combined administration) is “poor therapeutic effect”.

Regarding `C=CC[C@@H]1/C=C(\C)C[C@H](C)C[C@H](OC)[C@H]2O[C@@](O)(C(=O)C(=O)N3CCCC[C@H]3C(=O)O[C@H](/C(C)=C/[C@@H]3CC[C@@H](O)[C@H](OC)C3)[C@H](C)[C@@H](O)CC1=O)[C@H](C)C[C@@H]2OC` [tacrolimus], the “total level of IgE in the serum” value in series [1] was “no clear difference”. Also, the “dose required relative to cyclosporine” value in series [4] was “lower dose than cyclosporine by a factor of 10”. In series [5], the “immunosuppressive effect (changes in concentrations of IFN-g, IL-4, IL-5)” value is given as “suppressed an immune response”.
